What was measured:
[1] = test system: antibody titer to rh-alpha-glucosidase (rhGAA); experiment: ELISA antibody titer to rhGAA in canines on weekly rhGAA infusions; type: in vivo, canine
Procedure: Enzyme Infusions. […] Infusions were performed with 0.056 mg/kg/week recombinant human alpha glucosidase in a 50 mL infusion of saline and 10 mM NaPO4, pH 5.8. […] Animals were monitored for anaphylactic reaction.

fibroblasts = experiment: Half maximal uptake (Kuptake) of alpha-glucosidase into fibroblasts; type: cell-based
[2] = control canine ST, no drug treatment

Substance: rhGAA: recombinant human alpha-glucosidase, lysosomal enzyme being developed to treat Pompe disease
- Antibody levels to rhGAA at the highest point ([1]; 0.056 mg/kg/week iv rhGAA, weeks 1-12): > 150 OD Units
- titer by week 4 [1, 2]: more than 100 OD units per microliter of serum
- titer subsequently (after week 4) [1, 2]: 100-200 units per microliter of serum
- higher titer of control dog by week 5 ([1]; control vs treated dog): 100 fold
- Kuptake (enzyme concentration at half maximal uptake) (fibroblasts): about 1 nanomolar

Reference: patent publication US7883707B2, “Induction of antigen specific immunnologic tolerance” (priority 2002, dated 2011)
